Test results as given in US7109197B2, “N-phenyl-4-(4-pyridyl)-2-pyrimidineamine derivatives” (Syngenta Crop Protection, Inc., priority 2000, dated 2006).

Legend:
Format in all cases: in vivo
[1] = test system: Pyrenophora teres (Helminthosporium); experiment: Assay B-10: Effect against Pyrenophora teres (Helminthosporium)/barley (net blotch on barley); conditions: Pyrenophora teres on barley cv. Regina; 0.02% active substance, spray
Method: Assay B-10: Effect Against Pyrenophora teres (Helminthosporium)/Barley (Net Blotch on Barley) 1 week old barley plants cv. Regina are treated with a formulated testcompound (0.02% active substance) in a spray chamber. Two days after application barley plants are inoculated by spraying a spore suspension (3×10^4 conidia/ml) on the test plants. After an incubation period of 2 days at 20° C. and 95% r.h. plants are kept for 2 days at 20° C. and 60% r.h. in a greenhouse. The disease incidence is assessed 4 days after inoculation.

Septoria nodorum = experiment: Assay B-12: Effect against Septoria nodorum/wheat (Septoria leaf spot on wheat); conditions: Septoria nodorum on wheat cv. Arina; 0.02% active substance, spray
Method: Assay B-12: Effect Against Septoria nodorum/Wheat (Septoria Leaf Spot on Wheat) 1 week old wheat plants cv. Arina are treated with a formulated test compound (0.02% active substance) in a spray chamber. One day after application wheat plants are inoculated by spraying a spore suspension (5×10^5 conidia/ml) on the test plants. After an incubation period of 1 day at 20° C. and 95% r.h. plants are kept for 10 days at 20° C. and 60% r.h. in a greenhouse. The disease incidence is assessed 11 days after inoculation.

Botrytis cinerea [2] = experiment: Assay B-7: Botrytis cinerea/grape (Botrytis on grapes); conditions: Botrytis cinerea on grape seedlings cv. Gutedel; 0.02% active substance, spray
Method: Assay B-7: Botrytis cinerea/Grape (Botrytis on Grapes) 5 week old grape seedlings cv. Gutedel are treated with the formulated testcompound (0.02% active substance) in a spray chamber. Two days after application grape plants are inoculated by spraying a spore suspension (1×10^6 conidia/ml) on the test plants. After an incubation period of 4 days at 21° C. and 95% r. h. in a greenhouse the disease incidence is assessed.

Botrytis cinerea [3] = experiment: Assay B-8: Effect against Botrytis cinerea/tomato (Botrytis on tomatoes); conditions: Botrytis cinerea on tomato cv. Roter Gnom; 0.02% active substance, spray
Method: Assay B-8: Effect Against Botrytis cinerea/Tomato (Botrytis on Tomatoes) 4 week old tomato plants cv. Roter Gnom are treated with the formulated testcompound 0.02% active substance) in a spray chamber. Two days after application tomato plants are inoculated by spraying a spore suspension (1×10^5 conidia/ml) on the test plants. After an incubation period of 4 days at 20° C. and 95% r. h. in a greenhouse the disease incidence is assessed.

Venturia inaegualis = experiment: Assay B-5: Residual protective activity against Venturia inaegualis on apples (scab on apple); conditions: Venturia inaegualis on apple seedlings cv. McIntosh; 0.02% active substance, spray
Method: Assay B-5: Residual Protective Activity Against Venturia inaegualis on Apples (Scab on Apple) 4 week old apple seedlings cv. McIntosh are treated with the formulated testcompound (0.02% active substance) in a spray chamber. One day after application apple plants are inoculated by spraying a spore suspension (4×10^5 conidia/ml) on the test plants. After an incubation period of 4 days at 21° C. and 95% r. h. the plants are placed for 4 days at 21° C. and 60% r. h. in a greenhouse. After another 4 day incubation period at 21° C. and 95% r. h. the disease incidence is assessed.

CC(C)(CO)Nc1cc(-c2ccnc(Nc3cccc(Cl)c3)n2)ccn1 [Compound 28]
B10 activity [1]: + (the activity observed in the corresponding test system is 70% or more)
B12 activity (Septoria nodorum): + (the activity observed in the corresponding test system is 70% or more)
B7 activity (Botrytis cinerea [2]): + (the activity observed in the corresponding test system is 70% or more)
B8 activity (Botrytis cinerea [3]): + (the activity observed in the corresponding test system is 70% or more)
B5 activity (Venturia inaegualis): + (the activity observed in the corresponding test system is 70% or more)

CC(CNc1cc(-c2ccnc(Nc3cccc(Cl)c3)n2)ccn1)Cn1ccnc1 (stereo not drawn) [Compound 30]
B10 activity [1]: + (the activity observed in the corresponding test system is 70% or more)
B12 activity (Septoria nodorum): + (the activity observed in the corresponding test system is 70% or more)
B8 activity (Botrytis cinerea [3]): + (the activity observed in the corresponding test system is 70% or more)
B5 activity (Venturia inaegualis): + (the activity observed in the corresponding test system is 70% or more)

OCC(CO)Nc1cc(-c2ccnc(Nc3cccc(Cl)c3)n2)ccn1 [Compound 35]
B10 activity [1]: + (the activity observed in the corresponding test system is 70% or more)
B7 activity (Botrytis cinerea [2]): + (the activity observed in the corresponding test system is 70% or more)
B8 activity (Botrytis cinerea [3]): + (the activity observed in the corresponding test system is 70% or more)
B5 activity (Venturia inaegualis): + (the activity observed in the corresponding test system is 70% or more)

COCOCC(C)N(COC)c1cc(-c2ccnc(Nc3cccc(Cl)c3)n2)ccn1 (stereo not drawn) [Compound 38]
B10 activity [1]: + (the activity observed in the corresponding test system is 70% or more)
B12 activity (Septoria nodorum): + (the activity observed in the corresponding test system is 70% or more)
B5 activity (Venturia inaegualis): + (the activity observed in the corresponding test system is 70% or more)

CCC(C)C(CO)Nc1cc(-c2ccnc(Nc3cccc(Cl)c3)n2)ccn1 (stereo not drawn) [Compound 41]
B10 activity [1]: + (the activity observed in the corresponding test system is 70% or more)
B7 activity (Botrytis cinerea [2]): + (the activity observed in the corresponding test system is 70% or more)
B5 activity (Venturia inaegualis): + (the activity observed in the corresponding test system is 70% or more)

CS(=O)(=O)O.Clc1cccc(Nc2nccc(-c3ccnc(NCCCn4ccnc4)c3)n2)c1 [Compound 49]
B10 activity [1]: + (the activity observed in the corresponding test system is 70% or more)
B12 activity (Septoria nodorum): + (the activity observed in the corresponding test system is 70% or more)
B7 activity (Botrytis cinerea [2]): + (the activity observed in the corresponding test system is 70% or more)
B8 activity (Botrytis cinerea [3]): + (the activity observed in the corresponding test system is 70% or more)

C=CCNc1cc(-c2ccnc(Nc3cccc(Cl)c3)n2)ccn1 [Compound 69]
B10 activity [1]: + (the activity observed in the corresponding test system is 70% or more)
B12 activity (Septoria nodorum): + (the activity observed in the corresponding test system is 70% or more)
B7 activity (Botrytis cinerea [2]): + (the activity observed in the corresponding test system is 70% or more)
B8 activity (Botrytis cinerea [3]): + (the activity observed in the corresponding test system is 70% or more)
B5 activity (Venturia inaegualis): + (the activity observed in the corresponding test system is 70% or more)

Clc1cccc(Nc2nccc(-c3ccnc(NCC4CCCO4)c3)n2)c1 (stereo not drawn) [Compound 75]
B10 activity [1]: + (the activity observed in the corresponding test system is 70% or more)
B12 activity (Septoria nodorum): + (the activity observed in the corresponding test system is 70% or more)
B7 activity (Botrytis cinerea [2]): + (the activity observed in the corresponding test system is 70% or more)
B8 activity (Botrytis cinerea [3]): + (the activity observed in the corresponding test system is 70% or more)
B5 activity (Venturia inaegualis): + (the activity observed in the corresponding test system is 70% or more)

CC(COc1ncccn1)Nc1cc(-c2ccnc(Nc3cccc(Cl)c3)n2)ccn1 (stereo not drawn) [Compound 95]
B10 activity [1]: + (the activity observed in the corresponding test system is 70% or more)
B12 activity (Septoria nodorum): + (the activity observed in the corresponding test system is 70% or more)
B5 activity (Venturia inaegualis): + (the activity observed in the corresponding test system is 70% or more)
